Results reported in patent publication US10329476B2, “Non-regulated synthetic acid compositions for use as alternatives to conventional acids in the oil and gas industry” (FLUID ENERGY GROUP LTD., priority 2015, dated 2019).

Test system: human skin
Experiment: Dermal exposure test
Type: in vivo
Source text: The objective of this study was to evaluate the dermal irritancy and corrosiveness of the composition of Example 2, following a single application to human skin. To assess the safety upon spillage on human skin, a few drops of the synthetic acid according to a preferred embodiment of the present invention and a control composition (MSA—70%) were applied to the skin on the back of the hand of a test individual. The hands were not covered and remained exposed to the compositions for a period of up to one hour. The exposed skin was subsequently washed with soap and visual assessment of the exposed area was done 24 hours after the start of the exposure.

Compound: CS(=O)(=O)O [MSA (70%), Methanesulfonic acid]
- Dermal exposure, skin observation (24 hrs from exposure, after washing with soap): scab formation
- Dermal exposure, skin observation (back of hand, 0 hrs from exposure): immediate burning
- Dermal exposure, skin observation (back of hand, 1 hrs from exposure): red skin irritation with large blisters
- Dermal exposure, skin observation (back of hand, ½ hrs from exposure): small blisters
